# Measured values published in patent US20260256751A1, “COMBINATION OF BETA-2-ADRENERGIC RECEPTOR AGONISTS AND GLP-1 RECEPTOR AGONISTS FOR USE IN TREATING HYPERGLYCAEMIA” (ATROGI AB, priority 2023, published 2026).
# How the values were obtained:
# [1] = system: differentiated L6-myotubes; test: Glucose uptake screen (Biological example 1 of WO 2019/053427); assay type: cell-based; details: compound at 10 μM, activity relative to isoproterenol at 10 μM, read-out: Biological example 1 of WO 2019/053427 (GU)
# How it was run: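 Uptake was read out as ^3H-2-deoxyglucose (50 nM, 10 min) radioactivity in NaOH lysates. Beforehand, overnight-starved, differentiated L6 myotubes received compound at 1×10^−5 M with ICI-118551 present for 1 h 40 min, followed by fresh agonist for a further 20 min in glucose-free medium.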
# [2] = system: differentiated L6-myotubes; test: cAMP production relative to isoprenaline (Biological example 2 of WO 2019/053427); assay type: cell-based; details: 0.25 h, compound at 10 μM, activity relative to isoproterenol at 10 μM
# How it was run: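 Values are cAMP levels relative to isoprenaline at equal concentration (final 1×10^−5 M for both). Stimulation lasted 15 min in differentiated L6 myotubes, using HBSS buffer (pH 7.4) containing 1 mM IBMX, 5 mM HEPES and 1% BSA.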
SMILES,Emax at 10 µM [1] [%],Emax at 10 µM [2] [%]
"O[C@H](c1cccc(F)c1)C12CCC(COc3ccc(Cl)cc3)(CC1)N2 [Compound 441, (R)-{4-[(p-chlorophenoxy)methyl]-7-azabicyclo[2.2.1]hept-1-yl}(m-fluorophenyl)methanol]",> 75,< 25
"O[C@@H](c1cncc(F)c1)C12CCC(COCc3ccc(F)cc3)(CC1)N2 [Compound 442, (S)-(4-{[(p-fluorophenyl)methoxy]methyl}-7-azabicyclo[2.2.1]hept-1-yl)(5-fluoro-3-pyridyl)methanol]",25 to 50,< 25
"O[C@H](c1cncc(F)c1)C12CCC(COCc3ccc(F)cc3)(CC1)N2 [Compound 443, (R)-(4-{[(p-fluorophenyl)methoxy]methyl}-7-azabicyclo[2.2.1]hept-1-yl)(5-fluoro-3-pyridyl)methanol]",> 75,25 to 50
"O[C@H](c1ccccc1F)C12CCC(CCc3cccnc3)(CC1)N2 [Compound 444, (R)-(o-fluorophenyl){4-[2-(3-pyridyl)ethyl]-7-azabicyclo[2.2.1]hept-1-yl}methanol]",> 75,50 to 75
"O[C@@H](c1cccc(F)c1)C12CCC(CCc3cccnc3)(CC1)N2 [Compound 445, (S)-(m-fluorophenyl){4-[2-(3-pyridyl)ethyl]-7-azabicyclo[2.2.1]hept-1-yl}methanol]",> 75,< 25
"O[C@H](c1cccc(F)c1)C12CCC(CCc3cccnc3)(CC1)N2 [Compound 446, (R)-(m-fluorophenyl){4-[2-(3-pyridyl)ethyl]-7-azabicyclo[2.2.1]hept-1-yl}methanol]",> 75,50 to 75
"CC(C)(C[C@H]1CC[C@@H](NC(=O)C2CC2)CC1)NC[C@H](O)c1cccc(F)c1 [Compound 447, N-[(1S,4s)-4-{2-[(R)-2-(m-fluorophenyl)-2-hydroxyethylamino]-2-methylpropyl}cyclohexyl]cyclopropanecarboxamide]",> 75,< 25
"CC(C)(C[C@H]1CC[C@@H](NC(=O)C2CCC2)CC1)NC[C@H](O)c1cccc(F)c1 [Compound 448, N-[(1S,4s)-4-{2-[(R)-2-(m-fluorophenyl)-2-hydroxyethylamino]-2-methylpropyl}cyclohexyl]cyclobutanecarboxamide]",50 to 75,< 25
CC(C)(C[C@H]1CC[C@@H](NC(=O)OC(C)(C)C)CC1)NC[C@H](O)c1cccc(F)c1 [Compound 449],50 to 75,< 25
"CC(C)(C[C@H]1CC[C@@H](NC(=O)OC(C)(C)C)CC1)NC[C@H](O)c1cccc(C(F)(F)F)n1 [Compound 450, (1R,4s)-4-(2-{(S)-2-hydroxy-2-[6-(trifluoromethyl)-2-pyridyl]ethylamino}-2-methylpropyl)cyclohexyl 2-methyl-2-propanecarbamate]",< 25,< 25
"CCCS(=O)(=O)N[C@H]1CC[C@H](CC(C)(C)NC[C@H](O)c2cccc(F)c2)CC1 [Compound 451, (R)-2-{1,1-dimethyl-2-[(1r,4R)-4-(propylsulfonylamino)cyclohexyl]ethylamino}-1-(m-fluorophenyl)-1-ethanol]",50 to 75,25 to 50
"CC(=O)N[C@H]1CC[C@@H](CC(C)(C)NC[C@H](O)c2cccc(F)c2)CC1 [Compound 452, N-[(1S,4s)-4-{2-[(R)-2-(m-fluorophenyl)-2-hydroxyethylamino]-2-methylpropyl}cyclohexyl]acetamide]",> 75,< 25
"CC(C)(C[C@H]1CC[C@@H](NS(C)(=O)=O)CC1)NC[C@H](O)c1cccc(F)c1 [Compound 453, (R)-2-{1,1-dimethyl-2-[(1s,4S)-4-(mesylamino)cyclohexyl]ethylamino}-1-(m-fluorophenyl)-1-ethanol]",> 75,< 25
"CC(C)(C[C@H]1CC[C@@H](NC(=O)C(F)(F)F)CC1)NC[C@H](O)c1cccc(F)c1 [Compound 454, N-[(1S,4s)-4-{2-[(R)-2-(m-fluorophenyl)-2-hydroxyethylamino]-2-methylpropyl}cyclohexyl]trifluoroacetamide]",> 75,< 25
"CC(C)(C[C@H]1CC[C@@H](NC(=O)C(C)(C)C)CC1)NC[C@H](O)c1cccc(F)c1 [Compound 455, N-[(1S,4s)-4-{2-[(R)-2-(m-fluorophenyl)-2-hydroxyethylamino]-2-methylpropyl}cyclohexyl]2,2-dimethylpropionamide]",50 to 75,< 25
"CC(C)(C[C@H]1CC[C@@H](N)CC1)NC[C@H](O)c1cccc(F)c1 [Compound 456, (R)-2-{1,1-dimethyl-2-[(1s,4S)-4-aminocyclohexyl]ethylamino}-1-(m-fluorophenyl)-1-ethanol]",> 75,< 25
"CN(C)C(=O)N[C@H]1CC[C@@H](CC(C)(C)NC[C@H](O)c2cccc(F)c2)CC1 [Compound 457, (R)-2-{1,1-dimethyl-2-[(1s,4S)-4-(3,3-dimethylureido)cyclohexyl]ethylamino}-1-(m-fluorophenyl)-1-ethanol]",> 75,25 to 50
"CC(C)(C[C@H]1CC[C@H](NS(=O)(=O)C(F)(F)F)CC1)NC[C@H](O)c1cccc(F)c1 [Compound 458, (R)-2-{1,1-dimethyl-2-[(1r,4R)-4-(trifluoromesylamino)cyclohexyl]ethylamino}-1-(m-fluorophenyl)-1-ethanol]",> 75,< 25
"CC(C)(C[C@H]1CC[C@H](NC(=O)OC(C)(C)C)CC1)NC[C@H](O)c1cccc(C(F)(F)F)n1 [Compound 459, (1S,4r)-4-(2-{(S)-2-hydroxy-2-[6-(trifluoromethyl)-2-pyridyl]ethylamino}-2-methylpropyl)cyclohexyl 2-methyl-2-propanecabamate]",> 75,< 25
"CC(=O)N[C@H]1CC[C@H](CC(C)(C)NC[C@H](O)c2cccc(C(F)(F)F)n2)CC1 [Compound 460, N-[(1S,4r)-4-(2-{(S)-2-hydroxy-2-[6-(trifluoromethyl)-2-pyridyl]ethylamino}-2-methylpropyl)cyclohexyl]acetamide]",50 to 75,< 25
"CC(C)(C[C@H]1CC[C@H](NS(C)(=O)=O)CC1)NC[C@H](O)c1cccc(C(F)(F)F)n1 [Compound 461, (S)-2-{1,1-dimethyl-2-[(1r,4S)-4-(mesylamino)cyclohexyl]ethylamino}-1-[6-(trifluoromethyl)-2-pyridyl]-1-ethanol]",25 to 50,< 25
"CC(=O)N[C@H]1CC[C@@H](CC(C)(C)NC[C@H](O)c2cccc(C(F)(F)F)n2)CC1 [Compound 462, N-[(1R,4s)-4-(2-{(S)-2-hydroxy-2-[6-(trifluoromethyl)-2-pyridyl]ethylamino}-2-methylpropyl)cyclohexyl]acetamide]",25 to 50,< 25
"CC(C)(C[C@H]1CC[C@@H](NS(C)(=O)=O)CC1)NC[C@H](O)c1cccc(C(F)(F)F)n1 [Compound 463, (S)-2-{1,1-dimethyl-2-[(1s,4R)-4-(mesylamino)cyclohexyl]ethylamino}-1-[6-(trifluoromethyl)-2-pyridyl]-1-ethanol]",50 to 75,< 25
"CN(C)S(=O)(=O)[C@H]1CC[C@H](CC(C)(C)NC[C@H](O)c2cccc(F)c2)CC1 [Compound 464, (R)-2-{1,1-dimethyl-2-[(1r,4R)-4-(dimethylaminosulfonyl)cyclohexyl]ethylamino}-1-(m-fluorophenyl)-1-ethanol]",25 to 50,25 to 50
"CN(C)S(=O)(=O)[C@H]1CC[C@H](CC(C)(C)NC[C@H](O)c2cncc(F)c2)CC1 [Compound 465, (R)-2-{1,1-dimethyl-2-[(1r,4R)-4-(dimethylaminosulfonyl)cyclohexyl]ethylamino}-1-(5-fluoro-3-pyridyl)-1-ethanol]",50 to 75,25 to 50
"CC(C)(C[C@H]1CC[C@@H](N)CC1)NC[C@H](O)c1cncc(F)c1 [Compound 466, (R)-2-{1,1-dimethyl-2-[(1s,4S)-4-aminocyclohexyl]ethylamino}-1-(5-fluoro-3-pyridyl)-1-ethanol]",50 to 75,< 25
"CC(=O)N[C@H]1CC[C@@H](CC(C)(C)NC[C@H](O)c2cncc(F)c2)CC1 [Compound 467, N-[(1S,4s)-4-{2-[(R)-2-(5-fluoro-3-pyridyl)-2-hydroxyethylamino]-2-methylpropyl}cyclohexyl]acetamide]",> 75,< 25
"CC(C)(C[C@H]1CC[C@@H](NS(C)(=O)=O)CC1)NC[C@H](O)c1cncc(F)c1 [Compound 468, (R)-2-{1,1-dimethyl-2-[(1s,4S)-4-(mesylamino)cyclohexyl]ethylamino}-1-(5-fluoro-3-pyridyl)-1-ethanol]",> 75,< 25
CC(C)(C[C@H]1CC[C@@H](NC(=O)OC(C)(C)C)CC1)NC[C@H](O)c1cncc(F)c1 [Compound 469],> 75,< 25
"CN(C)S(=O)(=O)[C@H]1CC[C@@H](CC(C)(C)NC[C@H](O)c2cccc(F)c2)CC1 [Compound 470, (R)-2-{1,1-dimethyl-2-[(1s,4S)-4-(dimethylaminosulfonyl)cyclohexyl]ethylamino}-1-(m-fluorophenyl)-1-ethanol]",> 75,25 to 50
